Laboratory results reported in patent EP0194158A2, “Anti-nicotine and anti-cotinine antibodies (monoclonal and other), and their uses in nicotine and cotinine assays” (Baylor College of Medicine, priority 1985, dated 1986).
pKd: −log10 of the molar value. Read-outs that look alike come from different tables or passages of the source.

Legend:
[1] = target: monoclonal antibody Anti-cotinine 305E5; assay: sandwich ELISA, inhibition of binding of monoclonal antibody to solid phase hapten (specificity); design: species or system mouse
Text: (§1) Control values were less than 0.05 absorbance unit.

[2] = target: monoclonal antibody Anti-nicotine 402C10; assay: as above; design: species or system mouse
Text: as §1

[3] = target: monoclonal antibody Anti-cotinine 305E5, isotype IgG2bk; assay: binding affinity constant K (method of R. Muller); design: species or system mouse; conditions: value is K multiplied by 10^-8
[4] = system: Rabbit Antibody 481D (anti-cotinine); assay: Fluorescent (fluorometric) ELISA; assay type: binding; conditions: nanograms of cotinine inhibitor required for 50% inhibition
[5] = system: the 6 cotinine antisera (rabbit); assay: ELISA with rabbit antisera, no second antibody; assay type: binding; conditions: range over the 6 antisera
Text: In these assays, no second antibody is required, because all rabbit IgG binds HRP-SpA (J.W. Goding, 20 J. Immunol. Methods 241 (1978)).

[6] = system: Rabbit Antibody 482D (anti-cotinine); assay: Fluorescent (fluorometric) ELISA; assay type: binding; conditions: nanograms of cotinine inhibitor required for 50% inhibition
[7] = target: monoclonal antibody Anti-cotinine 309G5, isotype IgG1k; assay: binding affinity constant K (method of R. Muller); design: species or system mouse; conditions: value is K multiplied by 10^-8
[8] = target: monoclonal antibody Anti-cotinine 308C11, isotype IgG1k; assay: binding affinity constant K (method of R. Muller); design: species or system mouse; conditions: value is K multiplied by 10^-8
[9] = system: Rabbit Antibody 494D (anti-cotinine); assay: Fluorescent (fluorometric) ELISA; assay type: binding; conditions: nanograms of cotinine inhibitor required for 50% inhibition
Protocol: (§2) b. Fluorometric ELISA: The wells of polystyrene microtiter plates (Immulon 2; Dynatech Laboratories, Alexandria, VA) were coated respectively with 0.004 and 0.016 ug of polylysine-cotinine and polylysine-nicotine conjugate (0.1 ml) in 3 mM phosphate buffer, and incubated overnight at 4°C, pH 6.3. After aspiration, the wells were blocked with 0.2 ml casein buffer (0.01M Tris-buffered saline, pH 7.6., containing 0.01M EDTA and 0.2% vitamin-free casein (Nutritional Biochemicals, Cleveland, OH)) for 1 hour at room temperature, and then washed once with 0.2 ml of the same buffer and again aspirated. Assays were performed in 0.1 ml total volume per well using 0.050 ml diluted ascites (0.025 ml sample), and 0.025 ml nicotine or cotinine. Plates were incubated overnight at 4°C, washed three times with 0.2 ml casein buffer and then 0.1 ml biotin conjugated sheep anti-mouse IgG (Cooper Biomedical, Malvern, PA) diluted 1/250 with casein buffer was added. After incubation for 3 hours at room temperature, the plates were washed three times with 0.2 ml casein buffer, and streptavidin (0.5 ug) was added to each well, incubated for 1 hour at room temperature and washed as before. 0.1 ml of biotinylated alkaline phosphatase (Zymed, South San Francisco, CA) diluted 1/200 was added to each well, the plates were incubated for 1 hour at room temperature, washed with 0.2 ml PBS containing 0.05% Tween-20, and then washed three times with 0.2 ml of 0.01 M Tris-buffered saline, pH 7.6. 0.1 ml of substrate was added containing 2.5 mM 4-methylumbelliferyl phosphate dissolved in buffer containing diethanolamine (20% v/v) pH 10, 1 mM MgClz, and 9 mM levamisol. Fluorescence was measured with a Microfluor fluorometer (Dynatech Laboratories) at an excitation wavelength of 365 nm and emission wavelength of 450 nm. The plates were read right after substrate was added and again at 30 minute intervals. (Plates should be stored in the dark).

[10] = system: Rabbit Antibody 113D (anti-cotinine); assay: Fluorescent (fluorometric) ELISA; assay type: binding; conditions: nanograms of cotinine inhibitor required for 50% inhibition
Protocol: as §2

[11] = system: Rabbit Antibody 495D (anti-cotinine); assay: Fluorescent (fluorometric) ELISA; assay type: binding; conditions: nanograms of cotinine inhibitor required for 50% inhibition
Protocol: as §2

[12] = target: monoclonal antibody Anti-cotinine 206F8, isotype IgAlambda; assay: binding affinity constant K (method of R. Muller); design: species or system mouse; conditions: value is K multiplied by 10^-8
[13] = system: the 4 anticotinine antibodies (McAb); assay: sandwich ELISA, inhibition by homologous hapten, all anti-cotinine McAb; assay type: binding, mouse; conditions: range over the 4 antibodies; each McAb diluted to give A490 1.0-1.2 without inhibitor
Protocol: as §1
Only 0.02 ng cotinine inhibited by 15%.

[14] = system: Monoclonal Antibody 309G5 (anti-cotinine); assay: Fluorescent (fluorometric) ELISA; assay type: binding, mouse; conditions: nanograms of cotinine inhibitor required for 50% inhibition
Protocol: as §2

[15] = system: Monoclonal Antibody 305E5 (anti-cotinine); assay: Fluorescent (fluorometric) ELISA; assay type: binding, mouse; conditions: nanograms of cotinine inhibitor required for 50% inhibition
Protocol: as §2

[16] = system: Monoclonal Antibody 206F8 (anti-cotinine); assay: Fluorescent (fluorometric) ELISA; assay type: binding, mouse; conditions: nanograms of cotinine inhibitor required for 50% inhibition
Protocol: as §2

[17] = system: Monoclonal Antibody 308C11 (anti-cotinine); assay: Fluorescent (fluorometric) ELISA; assay type: binding, mouse; conditions: nanograms of cotinine inhibitor required for 50% inhibition
Protocol: as §2

[18] = system: single rabbit antinicotine serum
Text: Also developed were similar ELISAs using rabbit antisera, that being prepared as described in J.J. Langone et al., Biochemistry (1973) supra; J.J. Langone, H. Van Vunakis, Methods in Enzymology (1982) supra. In these assays, no second antibody is required, because all rabbit IgG binds HRP-SpA (J.W. Goding, 20 J. Immunol. Methods 241 (1978)).

[19] = system: the 9 antinicotine antibodies (McAb)
Protocol: The specificity of two of the antibodies (anti-nicotine 402Cl0 and anti-cotinine 305E5) was analyzed,. using a modification of the sandwich ELISA technique, which technique is described in detail below. In essence, specificity was determined by discerning how much structually related substance need be added to inhibit binding of monoclonal antibody to solid phase hapten by 50%. The assays were carried out in wells coated with 0.012 ug nicotine- or cotinine-polylysine conjugate, and with anti-nicotine and anti-cotinine diluted 1:729,000.
The modification involved use of 0.01 m1 of serially diluted standard nicotine or cotinine, (known amounts of inhibitors to assess antibody specificity), or test samples (eg. saliva) added to 0.04 ml casein buffer before its incubation with monoclonal antibodies. Maximum A490 values (i.e., maximum antibody binding) were determined using casein buffer (0.01 ml) in place of inhibitor. […] Control values were less than 0.05 absorbance unit. […]
After the preparation, to determine McAb binding, 0.05 ml diluted ascites fluid was added to 0.05 ml casein buffer and the plates were incubated overnight at 4°C. […] Color development was stopped by addition of 0.05 ml 4N sulfuric acid, and the A490 nm values were measured in the ELISA reader.

[20] = target: monoclonal antibody Anti-nicotine 304A4, isotype IgG1k; conditions: read-out: K; binding affinity constant; value is K multiplied by 10^-8
Protocol: (§3) The binding affinity constant (K; an indication of binding strength), was measured by the method described in R. Muller, 34 J. Immunol. Methods 345 (i980). The concentration of antibody in the ascites fluid was also measured by a method described in R. Muller, id.

[21] = target: monoclonal antibody Anti-nicotine 302G3, isotype IgG1lambda; conditions: read-out: K; binding affinity constant; value is K multiplied by 10^-8
Protocol: as §3

[22] = target: monoclonal antibody Anti-nicotine 303C10, isotype IgG2k; conditions: read-out: K; binding affinity constant; value is K multiplied by 10^-8
Protocol: as §3

[23] = target: monoclonal antibody Anti-nicotine 303C5, isotype IgG1lambda; conditions: read-out: K; binding affinity constant; value is K multiplied by 10^-8
Protocol: as §3

[24] = target: monoclonal antibody Anti-nicotine 304A7, isotype IgG1lambda; conditions: read-out: K; binding affinity constant; value is K multiplied by 10^-8
Protocol: as §3

[25] = target: monoclonal antibody Anti-nicotine 301C4, isotype IgG1lambda; conditions: read-out: K; binding affinity constant; value is K multiplied by 10^-8
Protocol: as §3

[26] = target: monoclonal antibody Anti-nicotine 203G3, isotype IgMlambda; conditions: read-out: K; binding affinity constant; value is K multiplied by 10^-8
Protocol: as §3

[27] = target: monoclonal antibody Anti-nicotine 302A12, isotype IgG1k; conditions: read-out: K; binding affinity constant; value is K multiplied by 10^-8
Protocol: as §3

[28] = target: monoclonal antibody Anti-nicotine 402C10, isotype IgG2ak; conditions: read-out: K; binding affinity constant; value is K multiplied by 10^-8
Protocol: as §3

[29] = wells coated with 0.012 ug cotinine-polylysine conjugate, anti-cotinine diluted 1:729,000, total volume 0.1 ml
[30] = wells coated with 0.012 ug nicotine-polylysine conjugate, anti-nicotine diluted 1:729,000, total volume 0.1 ml
[31] = at 700 ng, the highest amount printed in the cell

CN1CCCC1c1cccnc1N (stereo not drawn) [2-aminonicotine]
Nanograms required for 50% inhibition [1, 29]: 1,700 Nanograms | Nanograms required for 50% inhibition [2, 30]: 14.0 Nanograms

O=C(O)CCC(=O)c1cccnc1 [gamma-(3-pyridyl-gamma-oxobutyric acid]
Nanograms required for 50% inhibition [1, 29]: 410 Nanograms | Nanograms required for 50% inhibition [2, 30]: 1,920 Nanograms

C[N+]1([O-])CCCC1c1cccnc1 (stereo not drawn) [nicotine N'-oxide]
Nanograms required for 50% inhibition [1, 29]: 490 Nanograms | Nanograms required for 50% inhibition [2, 30]: 81.0 Nanograms

O=C1CCC(c2cccnc2)N1 (stereo not drawn) [desmethylcotinine]
fold more required for 50% inhibition compared to homologous hapten ([1]; ratio to (S)-(-)-cotinine): 13 fold | Nanograms required for 50% inhibition [1, 29]: 1.6 Nanograms | Nanograms required for 50% inhibition [2, 30]: 10,000 Nanograms

CN1C(=O)CC[C@H]1c1cccnc1 [(S)-(-)-cotinine]
inhibition ([1]; 0.02 ng cotinine): 15% | Nanograms required for 50% inhibition [1, 29]: 0.12 Nanograms | Nanograms required for 50% inhibition [2, 30]: 1,000 Nanograms | pKd [3]: 8.75 | I 50% [4]: 0.215 nanograms | 50% inhibition values [5]: 0.3 to 1.2 ng | I 50% [6]: 0.025 nanograms | pKd [7]: 8.88 | pKd [8]: 8.49 | I 50% [9]: 0.075 nanograms | I 50% [10]: 0.045 nanograms | I 50% [11]: 0.310 nanograms | pKd [12]: 8.27 | 50% inhibition [13]: 0.038 to 0.12 ng | I 50% [14]: 0.015 nanograms | I 50% [15]: 0.024 nanograms | I 50% [16]: 0.255 nanograms | I 50% [17]: 0.033 nanograms

(-)-cotinine N'-oxide
Nanograms required for 50% inhibition [1, 29]: 4.6 Nanograms | inhibition (per cent in brackets) ([2]; at the 1,000 ng level): 0% | Nanograms required for 50% inhibition [2, 30]: > 1,000 Nanograms

c1cncc([C@@H]2CCCN2)c1 [(-)-nornicotine]
Nanograms required for 50% inhibition [1]: 50.0 Nanograms | Nanograms required for 50% inhibition [2]: 95.0 Nanograms

CCN1CCCC1c1cccnc1 (stereo not drawn) [N-ethylnornicotine]
inhibition (per cent in brackets) ([1]; at the 1,000 ng level): 44% | Nanograms required for 50% inhibition [1, 29]: > 1,000 Nanograms | Nanograms required for 50% inhibition [2, 30]: 5.4 Nanograms

c1cncc([C@@H]2CCCCN2)c1 [anabasine]
Nanograms required for 50% inhibition [1, 29]: 170 Nanograms | Nanograms required for 50% inhibition [2, 30]: 14.3 Nanograms

CN1CCCC1CCO (stereo not drawn) [1-methyl-2-pyrrolidine ethanol]
Nanograms required for 50% inhibition [1, 29]: 6,950 Nanograms | Nanograms required for 50% inhibition [2, 30]: 5.4 Nanograms

CN1CCCC1c1ccc(N)nc1 (stereo not drawn) [6-aminonicotine]
Nanograms required for 50% inhibition [1, 29]: 8,500 Nanograms | Nanograms required for 50% inhibition [2, 30]: 35.0 Nanograms

c1cncc(C2=NCCC2)c1 [myosmine]
Nanograms required for 50% inhibition [1, 29]: 220 Nanograms | inhibition (per cent in brackets) [2, 31]: 13% | Nanograms required for 50% inhibition [2, 30]: > 700 Nanograms

CN1CCCC1c1ccc(O)nc1 (stereo not drawn) [6-hydroxynicotine]
Nanograms required for 50% inhibition [1, 29]: 330 Nanograms | times more required for 50% inhibition than (S)-(-)-nicotine ([2]; ratio to the naturally occurring isomer): 5 fold | Nanograms required for 50% inhibition [2, 30]: 1.3 Nanograms

O=NN1CCCC1c1cccnc1 (stereo not drawn) [N'-nitrosonornicotine]
Nanograms required for 50% inhibition [1, 29]: 6.5 Nanograms | inhibition (per cent in brackets) [2, 31]: 31% | Nanograms required for 50% inhibition [2, 30]: > 700 Nanograms

CN1CCC[C@@H]1c1cccnc1 [(R)-(+)-nicotine]
Nanograms required for 50% inhibition [1]: 320 Nanograms | Nanograms required for 50% inhibition [2]: 6.4 Nanograms | times more required for 50% inhibition than (S)-(-)-nicotine [2]: Twenty-five

CN1CCC[C@H]1c1cccnc1 [(S)-(-)-nicotine]
required for 50% inhibition [18]: 3.9 ng | Stereospecificity for (S)-(-)-nicotine ([19]; range over all 9 anti-nicotine McAb, versus R-(+)-nicotine): 5-45 fold | 50% inhibition ([19]; range over the 9 antibodies, each McAb diluted to give A490 1.0-1.2 without inhibitor): 0.091 to 0.51 ng | inhibition [2]: 15% | pKd [20]: 8.12 | pKd [21]: 8.21 | pKd [22]: 7.73 | pKd [23]: 8.15 | pKd [24]: 7.94 | pKd [25]: 8.01 | pKd [26]: 7.68 | pKd [27]: 8.10 | pKd [28]: 8.08
